Usually inhibition stands for the relative decrease from the control value, in per cent. Usually Ki stands for the dissociation constant of the complex between target and ligand, obtained from inhibition or displacement. Usually Papp B→A stands for the apparent permeability from the basolateral to the apical side of a cell layer. As a reminder, the EC50 is the concentration that produces a half-maximal response.

The source of these data is ChEMBL document CHEMBL1148572, “1-((S)-2-aminopropyl)-1H-indazol-6-ol: a potent peripherally acting 5-HT2 receptor agonist with ocular hypotensive activity” (J Med Chem, 2006).

Series [1] addresses Estrogen receptor (Homo sapiens) (UniProt Q92731+P03372). Nature of the series: Inhibition of estrogen receptor at 100 nM. The class given is protein assay.
Series [2] concerns the target T1, Sodium-dependent noradrenaline transporter (Homo sapiens, UniProt P23975). Nature of the series: Inhibition of NET at 10 uM.
Series [3] deals with T2, Glutamate receptor ionotropic kainate (Homo sapiens) (UniProt P39086+Q16478+Q16099+Q13002+Q13003). Nature of the series: Inhibition of kainate receptor at 1 nM. Format: protein-complex assay.
The target in series [4] is T3, monoamine oxidase B (MAO-B) (Rattus norvegicus, UniProt P19643).
T3 sequence (P19643 whole entry): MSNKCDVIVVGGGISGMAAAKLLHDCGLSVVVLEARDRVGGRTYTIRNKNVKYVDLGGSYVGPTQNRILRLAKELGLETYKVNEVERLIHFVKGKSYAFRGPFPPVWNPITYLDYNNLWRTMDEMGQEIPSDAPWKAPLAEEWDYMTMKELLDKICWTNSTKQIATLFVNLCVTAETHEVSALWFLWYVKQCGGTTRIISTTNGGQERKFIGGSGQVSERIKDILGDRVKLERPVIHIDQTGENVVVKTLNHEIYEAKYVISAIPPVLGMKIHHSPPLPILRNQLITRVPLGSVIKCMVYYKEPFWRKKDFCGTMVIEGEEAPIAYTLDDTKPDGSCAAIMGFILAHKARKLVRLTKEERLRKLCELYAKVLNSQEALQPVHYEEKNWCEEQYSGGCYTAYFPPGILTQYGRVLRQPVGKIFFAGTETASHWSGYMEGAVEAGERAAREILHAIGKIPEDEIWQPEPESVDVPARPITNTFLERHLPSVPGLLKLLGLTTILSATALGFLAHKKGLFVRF
Kind of series: Inhibition of monoamine oxidase B in rat brain at 100 nM. The class given is tissue-based.

Series [5] concerns the target T4, Endothelin-1 receptor (Homo sapiens) (UniProt P25101).
T4 sequence (whole entry): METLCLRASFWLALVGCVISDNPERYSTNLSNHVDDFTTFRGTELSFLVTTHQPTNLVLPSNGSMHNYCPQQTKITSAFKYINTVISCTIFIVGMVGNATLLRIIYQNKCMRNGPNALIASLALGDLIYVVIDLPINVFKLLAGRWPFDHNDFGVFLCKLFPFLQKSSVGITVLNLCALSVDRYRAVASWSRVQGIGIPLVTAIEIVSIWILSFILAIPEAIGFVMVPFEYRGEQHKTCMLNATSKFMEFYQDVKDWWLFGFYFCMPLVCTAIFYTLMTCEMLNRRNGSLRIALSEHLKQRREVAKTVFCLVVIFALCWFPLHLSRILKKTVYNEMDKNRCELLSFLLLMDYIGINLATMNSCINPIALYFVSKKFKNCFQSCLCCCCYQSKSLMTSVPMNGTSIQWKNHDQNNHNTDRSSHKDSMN
Nature of the series: Inhibition of human recombinant endothelin 1 receptor at 100 nM.

For series [6], the target named is GABA-A receptor; agonist GABA site (Homo sapiens) (UniProt P14867+P47870+P28472+P48169+P34903+P18505+P47869+P31644+Q16445). Kind of series: Inhibition of agonist site of GABAA receptor at 100 nM. The class given is functional.
The target of series [7] is Glutamate [NMDA] receptor (Homo sapiens) (UniProt Q05586+Q12879+Q13224+O15399+O60391+Q14957+Q8TCU5). Kind of series: Inhibition of MK-801 site of glutamate receptor at 1 nM. Format: protein-complex assay.
Series [8] concerns the target T2, Glutamate receptor ionotropic kainate (Homo sapiens). Kind of series: Inhibition of kainate receptor at 10 uM. Format: protein-complex assay.
For series [9], the target named is 5-hydroxytryptamine receptor 1D (Homo sapiens, UniProt P28221). Kind of series: Inhibitory activity against 5HT1D receptor.
Sequence of 5-hydroxytryptamine receptor 1D (P28221 whole entry): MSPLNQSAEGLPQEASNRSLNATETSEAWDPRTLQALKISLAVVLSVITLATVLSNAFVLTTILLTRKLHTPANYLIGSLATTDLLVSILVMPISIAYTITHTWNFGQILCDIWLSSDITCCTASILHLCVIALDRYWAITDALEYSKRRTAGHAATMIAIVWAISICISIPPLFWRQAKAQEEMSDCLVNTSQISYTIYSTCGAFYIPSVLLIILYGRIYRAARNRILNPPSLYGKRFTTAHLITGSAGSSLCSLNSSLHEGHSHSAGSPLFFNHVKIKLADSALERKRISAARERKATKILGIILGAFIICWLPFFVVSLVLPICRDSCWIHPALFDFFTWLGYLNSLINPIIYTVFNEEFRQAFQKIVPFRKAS
The target in series [10] is Glutamate receptor ionotropic AMPA (Homo sapiens) (UniProt P48058+P42263+P42262+P42261). Nature of the series: Inhibition of AMPA receptor at 100 nM. Format: protein-complex assay.
In a further series the test system is MDR1 (P-gp). Kind of series: Permeability from basolateral to apical side of the MDCK cell transfected with human MDR1. Format: ADME, cell-based.
In series [11] the target is Sodium-dependent serotonin transporter (Homo sapiens, UniProt P31645). Nature of the series: Inhibitory activity against SERT.
Sequence of Sodium-dependent serotonin transporter (P31645 whole entry): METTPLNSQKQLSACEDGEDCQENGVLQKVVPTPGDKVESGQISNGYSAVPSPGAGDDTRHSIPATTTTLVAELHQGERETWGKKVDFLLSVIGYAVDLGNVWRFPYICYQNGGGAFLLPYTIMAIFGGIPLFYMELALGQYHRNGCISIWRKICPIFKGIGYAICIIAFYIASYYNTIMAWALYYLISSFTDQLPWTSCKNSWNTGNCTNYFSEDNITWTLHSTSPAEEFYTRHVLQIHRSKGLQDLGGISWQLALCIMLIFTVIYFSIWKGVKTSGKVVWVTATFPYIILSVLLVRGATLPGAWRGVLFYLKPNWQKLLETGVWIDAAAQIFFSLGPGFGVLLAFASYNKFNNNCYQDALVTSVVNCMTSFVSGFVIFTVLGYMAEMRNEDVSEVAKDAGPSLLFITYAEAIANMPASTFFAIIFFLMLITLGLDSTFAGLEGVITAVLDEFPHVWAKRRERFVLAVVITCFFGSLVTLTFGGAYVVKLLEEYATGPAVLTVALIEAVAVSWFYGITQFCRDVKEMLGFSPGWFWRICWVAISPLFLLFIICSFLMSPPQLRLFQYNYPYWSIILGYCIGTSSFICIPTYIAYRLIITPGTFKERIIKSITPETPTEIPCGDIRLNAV
The target of series [12] is L-type calcium channel, dihydropyridine site (Homo sapiens, UniProt O60840+Q01668+Q13698+Q13936). Nature of the series: Inhibitory activity at dihydropyridine site of Calcium channel L type at 10 uM. The class given is protein assay.
For series [13], the target named is T1, Sodium-dependent noradrenaline transporter. Kind of series: Inhibitory activity against NET.
Series [14] addresses Sigma non-opioid intracellular receptor 1 (Homo sapiens) (UniProt Q99720). Nature of the series: Inhibition of non selective binding to sigma receptor at 1 nM.
The target of series [15] is T5, Alpha-2C adrenergic receptor (Homo sapiens, UniProt P18825).
T5 sequence (P18825 whole entry): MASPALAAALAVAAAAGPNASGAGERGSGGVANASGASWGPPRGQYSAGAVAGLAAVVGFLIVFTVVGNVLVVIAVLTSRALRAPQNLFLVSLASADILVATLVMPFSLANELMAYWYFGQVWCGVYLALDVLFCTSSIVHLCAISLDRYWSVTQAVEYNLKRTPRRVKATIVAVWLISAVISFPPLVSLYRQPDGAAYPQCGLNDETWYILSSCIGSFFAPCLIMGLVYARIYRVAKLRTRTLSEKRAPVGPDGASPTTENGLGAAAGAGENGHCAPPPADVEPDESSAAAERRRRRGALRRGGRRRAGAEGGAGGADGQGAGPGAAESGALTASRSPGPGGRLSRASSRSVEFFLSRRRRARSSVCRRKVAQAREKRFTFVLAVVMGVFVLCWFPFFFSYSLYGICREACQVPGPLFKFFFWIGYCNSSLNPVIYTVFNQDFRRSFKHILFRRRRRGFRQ
Kind of series: Displacement of [3H]clonidine from cloned human adrenergic Alpha-2C receptor expressed in Sf9 cells. In general terms: Displacement assays read how much labelled ligand stays bound in the presence of the test substance.

Series [16] deals with Protein kinase C, PKC; classical/novel (Homo sapiens) (UniProt O94806+P17252+P05129+Q05655+P05771+Q02156+P24723+Q15139+Q04759). Kind of series: Inhibition of PDBu activated protein kinase C at 1 nM. The class given is protein assay.
Series [17] addresses Voltage-dependent N-type calcium channel subunit alpha-1B (Homo sapiens) (UniProt Q00975). Kind of series: Inhibitory activity at Calcium channel N type at 100 nM.
Series [18] has as its target 5-hydroxytryptamine receptor 7 (Homo sapiens, UniProt P34969). Kind of series: Activity at 5HT7 receptor expressed in human corneal epithelial CEPI-17-CL4 cells by adenylyl cyclase assay. Format: functional, cell-based, Cornea.

T1 sequence (P23975 whole entry): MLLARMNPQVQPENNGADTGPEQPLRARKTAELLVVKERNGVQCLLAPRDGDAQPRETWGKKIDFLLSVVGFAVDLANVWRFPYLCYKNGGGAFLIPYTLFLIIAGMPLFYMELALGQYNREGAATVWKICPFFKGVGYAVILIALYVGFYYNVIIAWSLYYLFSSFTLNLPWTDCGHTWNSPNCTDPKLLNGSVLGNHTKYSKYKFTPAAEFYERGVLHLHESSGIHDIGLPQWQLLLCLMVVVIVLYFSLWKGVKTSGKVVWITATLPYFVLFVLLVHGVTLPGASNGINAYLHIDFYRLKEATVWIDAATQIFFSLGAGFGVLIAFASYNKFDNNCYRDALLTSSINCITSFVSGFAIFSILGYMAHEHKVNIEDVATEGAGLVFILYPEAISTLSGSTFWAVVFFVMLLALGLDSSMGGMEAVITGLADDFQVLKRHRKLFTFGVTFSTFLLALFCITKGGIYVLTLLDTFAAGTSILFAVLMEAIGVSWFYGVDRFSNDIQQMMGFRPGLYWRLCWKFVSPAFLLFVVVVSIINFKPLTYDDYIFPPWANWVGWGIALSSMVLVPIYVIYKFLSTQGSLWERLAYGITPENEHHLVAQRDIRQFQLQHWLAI
Sequence of Sigma non-opioid intracellular receptor 1 (Homo sapiens) (Q99720 whole entry): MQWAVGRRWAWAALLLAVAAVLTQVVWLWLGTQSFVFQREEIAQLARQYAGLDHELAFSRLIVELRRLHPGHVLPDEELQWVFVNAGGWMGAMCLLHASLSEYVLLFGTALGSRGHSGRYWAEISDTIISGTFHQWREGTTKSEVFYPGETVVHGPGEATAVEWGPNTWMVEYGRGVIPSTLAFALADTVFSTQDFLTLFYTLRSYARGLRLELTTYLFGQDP
Sequence of 5-hydroxytryptamine receptor 7 (P34969 whole entry): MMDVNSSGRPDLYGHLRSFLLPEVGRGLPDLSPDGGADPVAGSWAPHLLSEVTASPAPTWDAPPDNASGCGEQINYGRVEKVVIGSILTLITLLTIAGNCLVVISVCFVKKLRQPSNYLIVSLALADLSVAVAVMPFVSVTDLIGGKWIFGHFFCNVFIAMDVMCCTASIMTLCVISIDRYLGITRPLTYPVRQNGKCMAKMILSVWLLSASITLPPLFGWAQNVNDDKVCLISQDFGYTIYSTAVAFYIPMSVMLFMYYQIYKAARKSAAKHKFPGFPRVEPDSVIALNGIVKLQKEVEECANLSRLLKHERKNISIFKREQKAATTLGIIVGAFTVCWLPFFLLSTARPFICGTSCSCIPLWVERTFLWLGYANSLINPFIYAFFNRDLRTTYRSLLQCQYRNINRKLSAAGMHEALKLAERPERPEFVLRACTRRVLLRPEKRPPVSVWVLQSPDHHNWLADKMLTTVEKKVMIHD
Sequence of Voltage-dependent N-type calcium channel subunit alpha-1B (Homo sapiens) (Q00975 whole entry, looked up): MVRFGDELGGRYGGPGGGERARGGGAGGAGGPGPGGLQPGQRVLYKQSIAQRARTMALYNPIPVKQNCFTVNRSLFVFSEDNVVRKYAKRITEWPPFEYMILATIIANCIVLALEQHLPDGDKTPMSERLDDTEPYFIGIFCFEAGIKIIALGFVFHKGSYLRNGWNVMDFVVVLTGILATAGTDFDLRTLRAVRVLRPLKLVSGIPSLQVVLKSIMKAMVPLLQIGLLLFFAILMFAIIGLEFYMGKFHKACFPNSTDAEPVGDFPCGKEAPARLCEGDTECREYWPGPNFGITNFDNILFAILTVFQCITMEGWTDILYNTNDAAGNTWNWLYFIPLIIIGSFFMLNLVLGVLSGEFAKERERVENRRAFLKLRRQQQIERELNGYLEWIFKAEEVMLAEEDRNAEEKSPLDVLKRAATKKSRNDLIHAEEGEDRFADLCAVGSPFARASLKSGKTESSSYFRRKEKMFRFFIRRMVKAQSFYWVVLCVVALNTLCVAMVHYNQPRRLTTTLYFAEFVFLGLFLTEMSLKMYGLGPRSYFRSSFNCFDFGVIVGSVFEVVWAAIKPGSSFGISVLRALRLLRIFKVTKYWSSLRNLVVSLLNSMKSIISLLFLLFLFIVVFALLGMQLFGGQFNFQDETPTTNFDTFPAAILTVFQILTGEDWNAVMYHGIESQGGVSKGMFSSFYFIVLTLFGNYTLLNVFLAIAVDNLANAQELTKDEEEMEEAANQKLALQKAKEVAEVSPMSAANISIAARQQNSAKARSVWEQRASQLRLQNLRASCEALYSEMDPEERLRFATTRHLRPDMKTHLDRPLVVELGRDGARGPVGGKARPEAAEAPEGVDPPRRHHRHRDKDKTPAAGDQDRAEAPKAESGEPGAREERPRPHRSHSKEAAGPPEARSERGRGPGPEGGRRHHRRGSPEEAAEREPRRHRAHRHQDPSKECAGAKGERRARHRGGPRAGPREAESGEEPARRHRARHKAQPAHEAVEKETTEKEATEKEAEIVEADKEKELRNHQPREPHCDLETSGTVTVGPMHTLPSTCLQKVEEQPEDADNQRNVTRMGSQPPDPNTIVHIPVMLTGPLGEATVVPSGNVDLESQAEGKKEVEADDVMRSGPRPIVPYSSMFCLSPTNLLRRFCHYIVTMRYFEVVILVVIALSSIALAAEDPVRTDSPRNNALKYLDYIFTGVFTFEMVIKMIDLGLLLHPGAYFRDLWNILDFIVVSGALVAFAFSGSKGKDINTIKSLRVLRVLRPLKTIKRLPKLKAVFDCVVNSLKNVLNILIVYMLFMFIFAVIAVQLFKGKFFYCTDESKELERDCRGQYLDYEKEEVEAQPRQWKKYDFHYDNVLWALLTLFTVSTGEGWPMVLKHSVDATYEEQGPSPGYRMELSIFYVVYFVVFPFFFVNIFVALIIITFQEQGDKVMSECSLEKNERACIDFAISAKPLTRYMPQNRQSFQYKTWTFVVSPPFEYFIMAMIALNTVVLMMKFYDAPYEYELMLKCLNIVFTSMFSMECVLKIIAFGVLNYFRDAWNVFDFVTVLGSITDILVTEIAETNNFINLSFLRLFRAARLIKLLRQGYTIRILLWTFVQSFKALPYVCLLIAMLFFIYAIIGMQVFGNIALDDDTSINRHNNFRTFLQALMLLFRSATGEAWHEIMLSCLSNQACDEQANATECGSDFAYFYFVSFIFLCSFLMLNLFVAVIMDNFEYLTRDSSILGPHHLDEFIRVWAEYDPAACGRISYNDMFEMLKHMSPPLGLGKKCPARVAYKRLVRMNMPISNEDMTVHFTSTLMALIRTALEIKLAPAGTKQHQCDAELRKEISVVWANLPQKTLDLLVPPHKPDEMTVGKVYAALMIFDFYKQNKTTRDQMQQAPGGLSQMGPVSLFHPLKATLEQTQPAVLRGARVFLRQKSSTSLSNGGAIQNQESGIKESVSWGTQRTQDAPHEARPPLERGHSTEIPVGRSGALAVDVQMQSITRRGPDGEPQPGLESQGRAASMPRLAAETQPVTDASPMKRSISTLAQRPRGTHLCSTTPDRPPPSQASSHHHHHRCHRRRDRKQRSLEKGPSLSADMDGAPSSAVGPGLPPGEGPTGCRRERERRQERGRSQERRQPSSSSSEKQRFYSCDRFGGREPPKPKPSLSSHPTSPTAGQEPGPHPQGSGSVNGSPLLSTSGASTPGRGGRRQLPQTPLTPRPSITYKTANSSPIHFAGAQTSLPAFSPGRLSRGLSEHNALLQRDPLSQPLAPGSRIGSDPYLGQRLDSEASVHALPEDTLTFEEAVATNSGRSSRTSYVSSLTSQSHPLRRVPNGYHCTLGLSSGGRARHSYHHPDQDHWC

`C[C@H](N)Cn1ncc2ccc(O)cc21`: the inhibition was 13.3% in series [1]; 42.6% in [2]; 12% in series [3]; 2.04% in series [5]; -0.91% in series [6]; -7.45% in series [7]. In addition, the inhibition in series [8] is 6.62%; in [10], 9.45%; in series [14] it was -2.35%; in series [16] it was 12.6%; in series [17], 2.01%. Besides, the inhibition at 0.1 µM in series [4] was -20%. In addition, the Ki is 7.87 µM in series [9], more than 10 µM in [11], more than 10 µM in series [13] and 4.7 µM in [15]. The apparent permeability from basolateral to apical (Papp B→A) with MDR1 (P-gp) amounted to 0.88 ×10⁻⁶ cm/s. Moreover, the inhibition at 10 µM in series [12] worked out at 15.2%. For the same molecule, the EC50 in [18] was 5.6 µM.
